Data reported in patent publication US20040077674A1, “Mappicine analogs, intermediates in the synthesis of mappicine analogs and methods of synthesis of mappicine analogs” (priority 2002, published 2004).

Experiments:
[1] = molecular target: T1, RNA-dependent DNA polymerase activity of HIV reverse transcriptase (Human immunodeficiency virus type 1 group M subtype B, UniProt P03366); assay: RNA-dependent DNA polymerase activity assay of HIV reverse transcriptase; format: biochemical, HIV-1; conditions: 10 μM inhibitor concentration; activity in presence / in absence of analog x 100
T1 construct: made in house
Protocol: In separate representative assays, mappicine analogs were tested for their ability to inhibit the RNA-dependent DNA polymerase activity of HIV reverse transcriptase and for their ability to inhibit the RNase H activity of HIV reverse transcriptase. The assay for RNA-dependent DNA polymerase activity is discussed in Borkow, G. et al., “Inhibition of the Ribonuclease H and DNA Polymerase Activities of HIV-1 Reverse Transcriptase by N-(4-tert-Butylbenzoyl)-2-hydroxy-1-naphthaldehyde Hydrazone,” Biochemistry 1997, 36, 3179-3185, a copy of which is attached hereto and the disclosure of which is incorporated herein by reference. Assays were carried out in the absence and in the presence of mappicine analogs (10 μM final concentration). The results are reported as % residual activity, which is the RNA-dependent DNA polymerase activity of the enzyme in the presence of the mappicine analog divided by the RNA-dependent activity of the enzyme in the absence of the mappicine analog, multiplied by 100.

[2] = molecular target: T2, RNase H activity of HIV reverse transcriptase (Human immunodeficiency virus type 1 group M subtype B, UniProt P03366); assay: Fluorescence (FRET)-based RNase H assay of HIV reverse transcriptase; format: biochemical, HIV-1; conditions: 10 μM inhibitor concentration; activity in presence / in absence of analog x 100
T2 construct: 2.5 nM of the p51/p66 RT heterodimer in the assay; made in house

SMILES | Residual activity (%) Polymerase [1] | Residual activity (%) RNase H [2]
CCC(O)c1cc2n(c(=O)c1C)Cc1c-2nc2ccc(C)cc2c1[Si](C)(C)C (stereo not shown) [5 (5Cα)] | 68% | 62%
CCC(=O)c1cc2n(c(=O)c1C)Cc1c-2nc2ccc(C)cc2c1[Si](C)(C)C [5 (5Cακ)] | 93% | 109%
Cc1ccc2nc3c(c([Si](C)(C)C)c2c1)Cn1c-3cc(C(O)C(C)(C)C)c(C)c1=O (stereo not shown) [5 (5Cβ)] | 72% | 80%
Cc1ccc2nc3c(c([Si](C)(C)C)c2c1)Cn1c-3cc(C(=O)C(C)(C)C)c(C)c1=O [5 (5Cβκ)] | 76% | 92%
Cc1ccc2nc3c(c([Si](C)(C)C)c2c1)Cn1c-3cc(C(O)CCC2CCCCC2)c(C)c1=O (stereo not shown) [5 (5Cδ)] | 41% | 103%
Cc1ccc2nc3c(c([Si](C)(C)C)c2c1)Cn1c-3cc(C(=O)CCC2CCCCC2)c(C)c1=O [5 (5Cδκ)] | 59% | 99%
Cc1ccc2nc3c(c([Si](C)(C)C)c2c1)Cn1c-3cc(C(O)Cc2ccccc2)c(C)c1=O (stereo not shown) [5 (5Cε)] | 87% | 93%
CCC(O)c1cc2n(c(=O)c1C)Cc1c-2nc2ccc(OC)cc2c1[Si](C)(C)C (stereo not shown) [5 (5Dα)] | 88% | 78%
CCC(=O)c1cc2n(c(=O)c1C)Cc1c-2nc2ccc(OC)cc2c1[Si](C)(C)C [5 (5Dακ)] | 50% | 86%
COc1ccc2nc3c(c([Si](C)(C)C)c2c1)Cn1c-3cc(C(O)C(C)(C)C)c(C)c1=O (stereo not shown) [5 (5Dβ)] | 76% | 102%
COc1ccc2nc3c(c([Si](C)(C)C)c2c1)Cn1c-3cc(C(=O)C(C)(C)C)c(C)c1=O [5 (5Dβκ)] | 64% | 86%
COc1ccc2nc3c(c([Si](C)(C)C)c2c1)Cn1c-3cc(C(O)CCC2CCCCC2)c(C)c1=O (stereo not shown) [5 (5Dδ)] | 57% | 96%
COc1ccc2nc3c(c([Si](C)(C)C)c2c1)Cn1c-3cc(C(=O)CCC2CCCCC2)c(C)c1=O [5 (5Dδκ)] | 40% | 92%
COc1ccc2nc3c(c([Si](C)(C)C)c2c1)Cn1c-3cc(C(O)Cc2ccccc2)c(C)c1=O (stereo not shown) [5 (5Dε)] | 48% | 70%
CCCCCCc1c2c(nc3ccccc13)-c1cc(C(O)CC)c(C)c(=O)n1C2 (stereo not shown) [5 (8Aα)] | 42% | 83%
CCCCCCc1c2c(nc3ccccc13)-c1cc(C(=O)CC)c(C)c(=O)n1C2 [5 (8Aακ)] | 53% | 77%
CCCCCCc1c2c(nc3ccccc13)-c1cc(C(O)C(C)(C)C)c(C)c(=O)n1C2 (stereo not shown) [5 (8Aβ)] | 103% | 91%
CCCCCCc1c2c(nc3ccccc13)-c1cc(C(=O)C(C)(C)C)c(C)c(=O)n1C2 [5 (8Aβκ)] | 76% | 96%
CCCCCCc1c2c(nc3ccccc13)-c1cc(C(O)CCC3CCCCC3)c(C)c(=O)n1C2 (stereo not shown) [5 (8Aδ)] | 72% | 89%
CCCCCCc1c2c(nc3ccccc13)-c1cc(C(=O)CCC3CCCCC3)c(C)c(=O)n1C2 [5 (8Aδκ)] | 63% | 97%
CCCCCCc1c2c(nc3ccccc13)-c1cc(C(O)Cc3ccccc3)c(C)c(=O)n1C2 (stereo not shown) [5 (8Aε)] | 58% | 71%
CCCCCCc1c2c(nc3ccccc13)-c1cc(C(=O)Cc3ccccc3)c(C)c(=O)n1C2 [5 (8Aεκ)] | 59% | 92%
CCCCCCc1c2c(nc3ccc(F)cc13)-c1cc(C(O)CC)c(C)c(=O)n1C2 (stereo not shown) [5 (8Bα)] | 57% | 80%
